# Measurements: patent US11565003B2, “Mechanical opening of lipid bilayers by molecular nanomachines” (William Marsh Rice University, priority 2016, dated 2023)
# Test system: synthetic bilipid vesicles
# Experiment: BODIPY dye release from synthetic bilipid vesicles upon UV illumination
# Details: first 15 minutes of UV exposure, 365 nm
# Method: Premixed and dried synthetic phospholipid blend [1,2-dioleoyl-sn-glycero-3-phosphoethanolamine (DOPE): 1,2-dioleoyl-sn-glycero-3-phospho-L-serine (DOPS): 1,2-dioleoyl-sn-glycero-3-phosphocholine (DOPC) at a ratio of 5:3:2] were stored in a −20° C. freezer before use. To prepare the large unilamellar vesicles (LUVs), 5 mL 0.5× phosphate buffered saline (PBS) at pH 7.4 was added to swell the lipids solution (lipid concentration was 0.25 mg/mL). Then 7 μL of 210 μM BODIPY dye and 2 μL of 50 μM 1 (or 16 in the control experiments) were added to the solution. After incubation for 1 hour at room temperature with occasional vortexing, the lipids formed a cloudy suspension. […] The vesicles were then observed using a home-build confocal fluorescence microscope at 488 nm excitation and 535±50 nm emission.
# Due to the highly non-polar nature of compound 1, it prefers to be sorbed in the bilipid membrane (FIG. 3). […] The fluorescence intensity of the BODIPY dye molecules in single vesicles was monitored using a confocal fluorescence microscope by continuously scanning a small area (20×20 μm^2).
# As the UV illumination time increased from 0 to 15 minutes, the fluorescence intensity of the vesicles became dimmer (FIG. 4E). […] The average fluorescence intensity drop of 20 vesicles was 70±6% (mean±standard deviation) in the first 15 minutes of UV exposure. […]
smiles,measurement,value
COc1cc(C#Cc2ccc(C3=C4C(C)=C(C#CC56CC7CC(CC(C7)C5)C6)C(C)=[N+]4[B-](F)(F)n4c(C)c(C#CC56CC7CC(CC(C7)C5)C6)c(C)c43)cc2)c(OC)cc1C#Cc1ccc(C2=C3C(C)=C(C#CC45CC6CC(CC(C6)C4)C5)C(C)=[N+]3[B-](F)(F)n3c(C)c(C#CC45CC6CC(CC(C6)C4)C5)c(C)c32)cc1 [Compound 16],average fluorescence intensity drop of BODIPY in 20 vesicles (mean±standard deviation),9%±20%
